The values that follow come from patent US12268661B2, “Methods of treating ascites” (Martin Pharmaceuticals, Inc., priority 2019, dated 2025).

The conditions of series [1]: oral administration, high rates of metabolism in gut/small intestine and liver, cited from earlier work.
The subject of a further series is patients with RA. As to conditions: cited from earlier work.
Series [2] concerns dopamine receptors, beta1 adrenoceptors, alpha-adrenoceptors. As to conditions: cited from earlier work.
For another series, the system named is RA patients. The note with it: small cohort of RA patients (Funasaki 1999); cited from earlier work.
Series [3] is described as follows: Dopamine levels after oral administration of docarpamine in non-Asian versus Asian populations. The format is in vivo, human. As to conditions: non-Asian (especially Caucasian) compared to Asian (especially Japanese) populations.
Series [4] concerns cirrhotic patients with refractory ascites. Briefly: Open-label, single-arm clinical study of docarpamine in cirrhotic subjects with refractory ascites. It is filed as in vivo, human. Here is the method: An open-label, single-arm study in which each subject serves as his/her own control is conducted. The study assesses the effect of DCP treatment on ascites formation in cirrhotic subjects with RA, by examining the frequency of LVP and the volume of ascitic fluid drained. All subjects participate in a 90-day open-label treatment period. […] Ascites history (relevant medications, LVP dates, and volume of drained fluid) for the 90 days prior to treatment and the 90 days after treatment are collected and used for comparison with on-treatment frequency and volume. The study population consists of cirrhotic patients between 18 and 70 years of age, inclusive, with refractory ascites, subject to the following inclusion and exclusion criteria. • Patients 18 years to 70 years of age. • Documented cirrhosis of the liver. • Refractory ascites, defined as ascites not manageable with diuretics and diet restriction, managed with periodic large volume therapeutic paracentesis. • Patients must have therapeutic […] 3 days prior to enrollment and a documented minimum of 3 additional therapeutic […] 90 days prior to enrollment, with at least 1 every 30 days. • Outpatient, with expected survival of at least 6 months. • Willing and able to complete an informed consent form. […] Results

Setting [5] is: dopamine 2 ug/kg/min, patients with RA (Lin 1998).

Where two headings read alike, the source gives them in different places.

Take `NCCc1ccc(O)c(O)c1` [dopamine]: the oral bioavailability entry was “not orally bioavailable” in series [1] and “not bioavailable when administered orally” in series [1] (listed as Dopamine). For the same molecule, the GFR entry in the series with patients with RA (dopamine 1.5 ug/kg/min (Bacq 1991)) is given as “did not enhance”; in the series on patients with RA (dopamine 200 ug/min), “did not significantly change”. In the series on patients with RA (dopamine 2 ug/kg/min (Espiritu 1972)), the “urine volume and GFR” value is “non-significant increases”. In addition, the “changes of blood urea nitrogen, creatinine, creatinine clearance, blood pressure, pulse rate, serum sodium, serum aldosterone and GFR” value in the series with patients with RA (setting [5]) is on record as “no difference”. Further, the “effective renal plasma flow” value in the series on patients with RA (setting [5]) is reported as “Positive effects”. Moreover, in the series on patients with RA (dopamine 1.3-3 ug/kg/min (Barnardo 1970)), the “urine volume, urine sodium or GFR” value is reported as “did not change”. The “effect at low rates of infusion” value in series [2] (0.5-2 mcg/kg/min, renal, mesenteric, coronary, intracerebral vascular beds) is “vasodilation”. Moreover, the “effect at intermediate rates of infusion” value in series [2] (2-10 mcg/kg/min, beta1 adrenoceptor stimulation) was “improved myocardial contractility, increased sino-atrial rate and enhanced impulse conduction in the heart”. In addition, the “effect at higher rates of infusion” value in series [2] (10-20 mcg/kg/min, alpha-adrenoceptors) was “vasoconstrictor effects and a rise in blood pressure”. The “effect at very high rates of infusion” value in series [2] (above 20 mcg/kg/min, alpha-adrenoceptor stimulation predominates) is “reversing renal dilation and natriuresis”. For the same molecule, in series [2] (intravenous), the “effect when administered intravenously” value was “natriuretic and positive inotropic effects”.

Consider `CCOC(=O)Oc1ccc(CCNC(=O)[C@H](CCSC)NC(C)=O)cc1OC(=O)OCC` [docarpamine], for which the “efficacy in refractory ascites” value in the series with RA patients is given as “effective”. Also, the “variability in the resulting dopamine levels” value in series [3] is recorded as “high degree of variability”. Besides, the “dose groups in which effects are observed” value in series [4] (750 mg 3 times per day (2250 mg) versus 1500 mg 3 times per day (4500 mg), 90 days) is “only in the high dose (4500 mg per day group)”. Further, the “time without requiring LVP” value in series [4] (1500 mg 3 times per day (4500 mg per day), 90 days treatment) is “Some patients do not require LVP for more than one month and others do not require LVP for more than two months”. Further, in series [4] (4500 mg per day group, 90 days), the “renin and/or aldosterone levels” value was “reduced, in some cases to normal, in many patients”; the “sodium excretion and other markers of renal function” value was “Increased sodium excretion and other markers of improved renal function respond positively”. The “frequency of LVP and/or volume of ascites removed over 90 days” value in series [4] (4500 mg per day group, 90 days, versus own history) was “reduced by more than half on average”. In addition, in series [4] (4500 mg per day group, most patients, from 500-1000 ml before, 'or more'), the urinary output was in the range of 1500 to 2000 mL. In series [4] (some patients, 2250 mg per day in combination with diuretics (furosemide and/or spironolactone)), the “response (need for LVP)” value was “enhanced response (decreased need for LVP)”.

`Oc1ccc(C2CNCCc3c2cc(O)c(O)c3Cl)cc1` (centres unmarked) [fenoldopam]: the “urine volume or urine sodium” value in the series with patients with RA (Hadengue 1991) is “failed to increase”.
